Data: PubChem BioAssay AID248 (DTP/NCI, 2004)
“And” between values parts separate entries of the source, which are not always exact repeats. Equal values may be shown once. Toxic doses and inconclusive results are not listed.

Test system: L1210 leukemia ip in BDF1 mice, survival T/C
Test: NCI In Vivo Anticancer Drug Screen. Data for tumor model L1210 Leukemia (intraperitoneal) in B6D2F1 (BDF1) mice
Conditions: endpoint: mean survival time, higher = longer survival
Procedure, shortened: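 Tumor cells were implanted, animals were treated, and survival was followed. The result divides the treated measurement by the vehicle-control measurement.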

[1] = dose: 100.0 mg/kg/injection, schedule: Q01DX001 (ip), vehicle: saline
[2] = dose: 200.0 mg/kg/injection, schedule: Q01DX001 (ip), vehicle: saline
[3] = dose: 100.0 mg/kg/injection, schedule: Q01DX001 (ip), vehicle: saline with Tween-80
[4] = dose: 200.0 mg/kg/injection, schedule: Q01DX001 (ip), vehicle: saline with Tween-80
[5] = dose: 400.0 mg/kg/injection, schedule: Q01DX001 (ip), vehicle: saline with Tween-80
[6] = dose: 100.0 mg/kg/injection, schedule: Q04DX003 (ip), vehicle: Klucel (hydroxypropylcellulose) (HPC)
[7] = dose: 200.0 mg/kg/injection, schedule: Q04DX003 (ip), vehicle: Klucel (hydroxypropylcellulose) (HPC)
[8] = dose: 400.0 mg/kg/injection, schedule: Q04DX003 (ip), vehicle: Klucel (hydroxypropylcellulose) (HPC)
[9] = dose: 50.0 mg/kg/injection, schedule: Q01DX001 (ip), vehicle: saline
[10] = dose: 400.0 mg/kg/injection, schedule: Q01DX001 (ip), vehicle: saline
[11] = dose: 100.0 mg/kg/injection, schedule: Q04DX002 (ip), vehicle: saline with Tween-80
[12] = dose: 200.0 mg/kg/injection, schedule: Q04DX002 (ip), vehicle: saline with Tween-80
[13] = dose: 100.0 mg/kg/injection, schedule: Q01DX009 (ip), vehicle: Klucel (hydroxypropylcellulose) (HPC)
[14] = dose: 200.0 mg/kg/injection, schedule: Q01DX009 (ip), vehicle: Klucel (hydroxypropylcellulose) (HPC)
[15] = dose: 400.0 mg/kg/injection, schedule: Q01DX009 (ip), vehicle: Klucel (hydroxypropylcellulose) (HPC)

NC(Cc1cc(I)c(O)c(I)c1)C(=O)O (stereo not given)
T/C (dose: 12.5 mg/kg/injection, schedule: Q01DX009 (ip), vehicle: carboxymethylcellulose (CMC)): 101 % of control
T/C (dose: 25.0 mg/kg/injection, schedule: Q01DX009 (ip), vehicle: carboxymethylcellulose (CMC)): 99 % of control
T/C (dose: 25.0 mg/kg/injection, schedule: Q01DX009 (ip), vehicle: saline): 92 % of control
T/C (dose: 25.0 mg/kg/injection, schedule: Q04DX003 (ip), vehicle: carboxymethylcellulose (CMC)): 101 % of control
T/C (dose: 50.0 mg/kg/injection, schedule: Q01DX009 (ip), vehicle: carboxymethylcellulose (CMC)): 90 % of control
T/C (dose: 50.0 mg/kg/injection, schedule: Q01DX009 (ip), vehicle: saline): 112 % of control
T/C (dose: 50.0 mg/kg/injection, schedule: Q04DX003 (ip), vehicle: carboxymethylcellulose (CMC)): 100 % of control
T/C (dose: 100.0 mg/kg/injection, schedule: Q01DX009 (ip), vehicle: carboxymethylcellulose (CMC)): 99 % of control
T/C (dose: 100.0 mg/kg/injection, schedule: Q01DX009 (ip), vehicle: saline): 108 % of control
T/C (dose: 100.0 mg/kg/injection, schedule: Q04DX003 (ip), vehicle: carboxymethylcellulose (CMC)): 96 % of control
T/C (dose: 200.0 mg/kg/injection, schedule: Q01DX009 (ip), vehicle: carboxymethylcellulose (CMC)): 91 % of control
T/C (dose: 200.0 mg/kg/injection, schedule: Q01DX009 (ip), vehicle: saline): 108 % of control
T/C (dose: 200.0 mg/kg/injection, schedule: Q04DX003 (ip), vehicle: carboxymethylcellulose (CMC)): 92 % of control
T/C (dose: 400.0 mg/kg/injection, schedule: Q01DX009 (ip), vehicle: saline): 95 % of control
T/C (dose: 400.0 mg/kg/injection, schedule: Q04DX003 (ip), vehicle: carboxymethylcellulose (CMC)): 100 % of control

N#Cc1cc[n+](Cc2ccc([N+](=O)[O-])cc2)cc1
T/C [1]: 104 % of control
T/C [2]: 98 % of control

CS(=O)(=O)NOCCCCONS(C)(=O)=O
T/C [3]: 103 % of control
T/C [4]: 91 % of control
T/C [5]: 92 % of control

CC(C)=CCC/C(C)=C/CN1C(=O)CCCC1=O
T/C [3]: 104 % of control
T/C (dose: 150.0 mg/kg/injection, schedule: Q04DX003 (ip), vehicle: saline with Tween-80): 94 % of control
T/C [4]: 97 % of control
T/C (dose: 300.0 mg/kg/injection, schedule: Q04DX003 (ip), vehicle: saline with Tween-80): 94 % of control
T/C [5]: 93 % of control
T/C (dose: 600.0 mg/kg/injection, schedule: Q04DX003 (ip), vehicle: saline with Tween-80): 90 % of control

N#CC(c1ccccc1)N1CCCCC1 (stereo not given)
T/C [6]: 101 % of control
T/C [7]: 107 % of control
T/C [8]: 91 % of control

S=C(Cc1ccc2ccccc2c1)N1CCOCC1
T/C (dose: 25.0 mg/kg/injection, schedule: Q01DX009 (ip), vehicle: saline sonified): 94 % of control
T/C (dose: 50.0 mg/kg/injection, schedule: Q01DX009 (ip), vehicle: saline sonified): 100 % of control
T/C [3]: 105 % of control
T/C (dose: 100.0 mg/kg/injection, schedule: Q01DX009 (ip), vehicle: saline sonified): 96 % of control

CC(CC12CC3CC(CC(C3)C1)C2)NN (stereo not given)
T/C (dose: 25.0 mg/kg/injection, schedule: Q04DX002 (ip), vehicle: Klucel (hydroxypropylcellulose) (HPC)): 101 % of control
T/C (dose: 50.0 mg/kg/injection, schedule: Q04DX002 (ip), vehicle: Klucel (hydroxypropylcellulose) (HPC)): 86 % of control

O=[N+]([O-])c1nncs1
T/C (dose: 6.25 mg/kg/injection, schedule: Q04DX003 (ip), vehicle: saline): 104 % of control
T/C (dose: 12.5 mg/kg/injection, schedule: Q04DX003 (ip), vehicle: saline): 98 % of control
T/C (dose: 25.0 mg/kg/injection, schedule: Q04DX003 (ip), vehicle: saline): 101 % of control

CC(Cl)(CCl)C(=O)O (stereo not given)
T/C [9]: 95 % of control
T/C [1]: 103 % of control

Cc1nc2cc(N=Cc3ccc(N(CCCl)CCCl)cc3Cl)ccc2n1C
T/C (dose: 100.0 mg/kg/injection, schedule: Q04DX002 (ip), vehicle: Klucel (hydroxypropylcellulose) (HPC)): 104 % of control
T/C (dose: 200.0 mg/kg/injection, schedule: Q04DX002 (ip), vehicle: Klucel (hydroxypropylcellulose) (HPC)): 104 % of control
T/C (dose: 400.0 mg/kg/injection, schedule: Q04DX002 (ip), vehicle: Klucel (hydroxypropylcellulose) (HPC)): 104 % of control

Cc1ccc(N=C=S)cc1F
T/C (dose: 75.0 mg/kg/injection, schedule: Q01DX001 (ip), vehicle: other): 95 % of control

CCC(C)COC(=O)Nc1cccc(Cl)c1 (stereo not given)
T/C (dose: 100.0 mg/kg/injection, schedule: Q01DX001 (ip), vehicle: other): 102 % of control
T/C (dose: 200.0 mg/kg/injection, schedule: Q01DX001 (ip), vehicle: other): 107 % of control
T/C (dose: 400.0 mg/kg/injection, schedule: Q01DX001 (ip), vehicle: other): 105 % of control

Cc1ccc(C)c2c1C1=C(CCCC1)S2(=O)=O
T/C [1]: 96 % of control
T/C [2]: 102 % of control
T/C [10]: 104 % of control

CC(O)(c1ccccc1)C(C)(O)c1ccccc1 (stereo not given)
T/C (dose: 50.0 mg/kg/injection, schedule: Q04DX002 (ip), vehicle: saline with Tween-80): 114 % of control
T/C [11]: 96 % of control
T/C [12]: 93 % of control

CCOC(=O)c1ccc(NC(=O)Oc2ccc3c(C)cc(=O)oc3c2)cc1
T/C [13]: 101 % of control
T/C [14]: 100 % of control
T/C [15]: 89 % of control

CNC(=N)c1ccc(NC(=N)c2ccc(NC(=N)c3ccc(NC(=O)Nc4ccc(C#N)cc4)cc3)cc2)cc1
T/C (dose: 3.25 mg/kg/injection, schedule: Q01DX015 (ip), vehicle: water): 119 % of control
T/C (dose: 13.0 mg/kg/injection, schedule: Q01DX015 (ip), vehicle: water): 160 % of control
T/C (dose: 17.0 mg/kg/injection, schedule: Q01DX Z (ip), vehicle: water): 152 % of control
T/C (dose: 26.0 mg/kg/injection, schedule: Q01DX015 (ip), vehicle: water): 205 % of control
T/C (dose: 30.0 mg/kg/injection, schedule: Q01DX001 (ip), vehicle: water): 112 % of control
T/C (dose: 32.5 mg/kg/injection, schedule: Q01DX001 (ip), vehicle: water): 180 % of control
T/C (dose: 34.0 mg/kg/injection, schedule: Q01DX Z (ip), vehicle: water): 153 % of control
T/C (dose: 50.0 mg/kg/injection, schedule: Q01DX001 (ip), vehicle: water): 151 % of control
T/C (dose: 65.0 mg/kg/injection, schedule: Q01DX001 (ip), vehicle: water): 165 % of control and 210 % of control and 228 % of control
T/C (dose: 97.0 mg/kg/injection, schedule: Q01DX001 (ip), vehicle: water): 232 % of control and 267 % of control

O/N=C1/CCCC/C1=C/C=C/c1ccccc1
T/C [13]: 97 % of control
T/C [6]: 100 % of control
T/C [14]: 97 % of control
T/C [7]: 94 % of control
T/C [15]: 97 % of control
T/C [8]: 93 % of control

Nc1nc(N)c2nnn(C3CC(O)C(CO)C3)c2n1 (stereo not given)
T/C (dose: 50.0 mg/kg/injection, schedule: Q01DX009 (ip), vehicle: saline with Tween-80): 89 % of control
T/C (dose: 100.0 mg/kg/injection, schedule: Q01DX009 (ip), vehicle: saline with Tween-80): 96 % of control
T/C (dose: 200.0 mg/kg/injection, schedule: Q01DX009 (ip), vehicle: saline with Tween-80): 92 % of control

O=C1CCc2nc(=O)c3c4ccccc4ccc3n21
T/C (dose: 100.0 mg/kg/injection, schedule: Q01DX001 (ip), vehicle: Klucel (hydroxypropylcellulose) (HPC)): 94 % of control
T/C (dose: 200.0 mg/kg/injection, schedule: Q01DX001 (ip), vehicle: Klucel (hydroxypropylcellulose) (HPC)): 100 % of control
T/C (dose: 400.0 mg/kg/injection, schedule: Q01DX001 (ip), vehicle: Klucel (hydroxypropylcellulose) (HPC)): 99 % of control

COc1ccc(/C=C2\N=C(c3ccccc3)OC2=O)c(Cl)c1OC
T/C [9]: 97 % of control
T/C [1]: 97 % of control
T/C [2]: 100 % of control
T/C [10]: 94 % of control

COC(=O)NS(=O)(=O)Nc1ccccc1
T/C [11]: 97 % of control
T/C [12]: 87 % of control
T/C (dose: 400.0 mg/kg/injection, schedule: Q04DX002 (ip), vehicle: saline with Tween-80): 94 % of control
